A short description of data set [1]: GLP toxicity phase: intratracheal instillation once daily for five days. Type of data set: in vivo, Sprague-Dawley rats. The following applies: for Body weight: female rats, at terminal euthanasia vs pre-dose. As to the method: Safety studies are described in Example 3, below. In a safety study conducted in compliance with Good Laboratory Practices (GLPs), 0.3 mL (300 μl) was administered to rats weighing 250-350 grams via intratracheal instillation daily for five consecutive days. […] The calculated dose based on lung weight was about 1.57 μg/g wet lung weight.
This study was conducted using both male and female Sprague-Dawley rats (Envigo, Huntingdon, United Kingdom). Evaluation of the safety of the tracheal route of instillation for liothyronine sodium injection in human clinical trials can be accomplished in this species at appropriate dose levels. Furthermore, responses to thyroid hormone in rats are similar to responses in humans, and the choice of the rat model is based in large part on pharmacologic data from studies of thyroid hormone and associated receptors and physiological responses in rat lung. The University of Minnesota is accredited by the Association for the Assessment and Accreditation of Laboratory Animal Care, International (AAALAC) and registered with the United States Department of Agriculture to conduct research in laboratory animals. Animal studies conformed to NIH guidelines (Guide for the Care and Use of Laboratory Animals. NIH publication No. 86-23. Revised 1985). The protocol was reviewed and approved, as applicable, by the Institutional Animal Care and Use Committee (IACUC) at the University of Minnesota for compliance with regulations prior to study initiation or implementation of amended activities.
Sixty animals (plus two spare animals/sex/group) were anesthetized and dosed via intratracheal instillation of test or control materials for five consecutive days. On the day after the last dose a terminal blood collection was performed for clinical pathology, after which animals were euthanized and a gross examination of all organs was performed by a board-certified veterinary pathologist. Select tissues were collected for histopathology. […] Terminal blood collection was performed at two designated time points per animal up to 24 hours after administration for toxicokinetic evaluation. TK animals were euthanized without further evaluation after the final blood collection. All animals were acclimated for a minimum of seven days prior to the dosing procedure. Animals underwent baseline observations and examinations prior to the initiation of the study, and clinical observations and body weight monitoring were performed throughout the in-life portion of the study. All animals received the same dose volume (0.3 mL) of either test or control materials. This maximum feasible dose (MFD) is constrained by the maximum volume that can be safely and reproducibly (over five days) instilled into lungs of rats weighing 250 g to 350 g, which was determined in preliminary toxicology studies to be 0.3 mL. Actual doses delivered are reported as both μg/kg body weight and μg/gm wet lung weight. The toxicity phase animals were 72-135 days of age at the time of initial dosing. Males weighed between 256.52 g and 307.50 g with a mean±standard deviation of 286.74±11.77 g, and females weighed between 250.46 g and 299.01 g with a mean±standard deviation of 260.64±10.34 g. The TK phase animals were 68-144 days of age at the time of initial dosing. Males weighed between 261.23 g and 316.19 g; females weighed between 250.06 g and 280.32 g.
Test and control materials were drawn into dosing syringes using aseptic technique. Using a 18G needle, 0.5 mL of air was drawn into a 1 cc syringe followed by 0.3 mL (300 μL) of the solutions. Animals were anesthetized with a combination of ketamine, 40 mg/kg to 200 mg/kg, and xylazine, 1 mg/kg to 7 mg/kg intraperitoneally (IP), to effect. The dose was adjusted daily, as needed, based on individual animal response and recovery. Depth of anesthesia was evaluated by toe pinch, and eye lubricant was applied to the eyes. […]

For a further data set, the system named is Akt. Description: Akt phosphorylation in RLE-6TN cells under hyperoxia. Type of data set: cell-based, rat. The following applies: 24 hours hyperoxia, T3 added for 20 minutes; vs room air control and hyperoxia alone. On the procedure: (§1) The cells were lysed in lysis buffer containing 20 mM Tris HCl (pH 7.5), 150 mM NaCl, 1 mM EDTA, 1 mM EGTA, 1% (vol/vol) Triton X-100 with protease inhibitors (1 mM PMSF, 2 μg/ml pepstatin, and 10 μg/ml each of aprotinin and leupeptin), and phosphatase inhibitors (2.5 mM sodium pyrophosphate, 1 mM β-glycerophosphate, and 1 mM Na3VO4). The lysate was drawn 10 times through a 25-gauge needle on ice for further lysis and then was centrifuged at 13,000 rpm for 15 minutes at 4° C. The supernatant was collected, and the protein concentrations were determined by use of the BCA protein assay kit (Sigma-Aldrich, St. Louis, MO). Immediately after this step, equal amounts of protein were subjected to Western blotting analysis.

The test system of another data set is Nrf2. Description: Western blot of Nrf2 protein in RLE-6TN cells under hyperoxia. Type of data set: cell-based, rat. The following applies: 24 hours hyperoxia, T3 10^−6 M.
Description: FIG. 9. […] The cells were then collected for Western Blotting analysis. (A) Cellular total protein of Nrf2. (B) Nuclear Nrf2.
FIG. 12. T3-induced increase in Nrf2 and HO-1 protein via PI3K in hyperoxia. (A) Western Blot and densitometry data for total Nrf2. (B) Western Blot and densitometry data for cytoplasmic Nrf2. (C) Western Blot and densitometry data for nuclear Nrf2.
At the end of the hyperoxia exposure period, the viable cells were counted by trypan blue dye exclusion.
Nuclei were extracted with NE-PER nuclear and cytoplasmic extraction reagents kit (Thermo Fisher Scientific, Inc., Waltham, MA) following the manufacturer's instruction.
as §1
(In western blotting, separated proteins are transferred to a membrane and probed.)

Data set [2] concerns intubated patients with ARDS. Briefly: Phase I/II trial of instilled T3: safety and clinical course. The format is in vivo, human. The text has this: Ten milliliters (mls) of reformulated, pH-adjusted commercial intravenous T3 solution (Par Pharmaceutical, Navi Mumbai, India; and XGen Pharmaceuticals DJB, Inc., Horseheads, NY) was instilled directly into the airspaces via a suction catheter in the endotracheal tube of intubated patients with ARDS. […] The study was approved by the Essentia IRB (Duluth, MN) and listed on ClinicalTrials.gov (NCT04115514).
Subsequent doses were given on days 4, 6, and 7. […] Despite Klebsiella aerogenes positive sputum culture, they were extubated on ventilator day 11. After discharge from the ICU, they had some confusion and delirium.

Data set [3] deals with rat lung mucosa and airspaces. Briefly: Preliminary studies: intratracheal instillation of liothyronine sodium without pH adjustment. The following applies: pH of >10.0 as supplied commercially.
Description: Using aseptic technique, vials of liothyronine sodium were opened and the entire contents were transferred into sterile 1.5 mL Eppendorf tubes. 80-90 μL of 1.0 N HCl was added to the tube and gently vortexed, and the pH was measured using pH test strips (pH 4.5 to 10.0, Ricca Chemical Co., Arlington, TX). Additional HCl was titrated in gradually, as needed, until the pH was in the desired range. […] This solution was stored at 4° C. and used for up to 26 hours after pH adjustment procedure.
[4] abbreviates: females, 1 day after fifth dose.

For the molecule `N[C@@H](Cc1cc(I)c(Oc2ccc(O)c(I)c2)c(I)c1)C(=O)O` [T3, triiodothyronine], the “Gross pathology at necropsy” value in data set [1] (all toxicity phase animals) was “No evidence of toxicity was observed grossly”. In data set [1] (during the study), the Clinical observations entry is “No adverse T3 related clinical observations were observed”. For the same molecule, the “Treatment-related macroscopic or microscopic findings” value in data set [1] (end organs examined) is “no macroscopic or microscopic findings in any of the end organs examined”. Further, the Body weight entry is reported as “weighed slightly less than their pre-dose weight” in data set [1] (toxicity phase) and “did not regain body weight at the same rate as males or as in control groups” in data set [1] (toxicity phase, listed as liothyronine sodium). Besides, in data set [1] (setting [4]), the “Hematology vs control groups” value was “mildly increased reticulocyte count and degree of polychromasia”. Also, the “Serum chemistry vs control groups” value in data set [1] (setting [4]) is “slight statistical difference in the mean albumin concentration”; in data set [1] (males, 1 day after fifth dose), “slight difference in the mean globulin level”. In data set [1] (five days intratracheal instillation), the “Organ weight of the lungs” value is recorded as “no differences in the organ weight of the lungs”. For the same molecule, in data set [1] (males, 1 day after fifth dose), the “Hematology parameters vs control groups” value is reported as “no statistical or clinically significant changes”. In addition, the “Deaths after dose administration” value in data set [1] (toxicity phase, T3 group, ascribed to colon impaction and instillation procedure) was “two T3 test animals that died after dose administration”. Further, the “Complications or changes (histopathologic, physiologic, laboratory value assessments)” value in data set [1] (~2.7 μg in 0.3 mL intratracheally daily for five consecutive days) is given as “No significant complications or changes were observed”. The “Phosphorylation of Akt at Ser473” value with Akt was “augmented phosphorylation of Akt at Ser473”. In addition, the “Total cellular and nuclear Nrf2 protein” value in the data set on Nrf2 was “significantly increased both total cellular and nuclear Nrf-2 protein expression”. Further, the Follow-up status entry is “normal complete pulmonary function tests (PFTs) and chest radiograph at 60 days” in data set [2] (Patient 1, 60 days); “asymptomatic with normal lung exam, chest radiograph and PFTs” in data set [2] (Patient 2, 60-day clinic follow up). Besides, the “Ventilator day of extubation” value is reported as 11 in data set [2] (Patient 1, four 50 μg doses from day 3) and 20 in data set [2] (Patient 2, escalating doses from ventilator day 3). Besides, the Tolerability of instillation entry in data set [2] (Patient 2) is reported as “tolerated each installation without apparent adverse side effects”. In data set [2] (Patient 2, previously deteriorating), the Oxygenation result is recorded as “stabilized over the four treatment days”. Besides, the “Adverse pulmonary or systemic events ascribed to T3 instillation” value in data set [2] (Patients 1 and 2) is given as “Neither patient had significant adverse pulmonary or systemic events”. In addition, the “Vasopressor dose required to maintain mean arterial pressure” value in data set [2] (Patients 1 and 2) is reported as “decreased in temporal association with the T3 instillation”. For the same molecule, in data set [3], the “Tolerability of intratracheal instillation” value was “do not tolerate”.

(Values after US12569459B2, “Compositions and methods for treating pulmonary edema or lung inflammation” (priority 2020, dated 2026).)
